Columns and labels:
[1] = Sub-acute toxicity in Kunming mouse assessed as hepatocellular condensation of liver at 50 mg/kg, po administered as single dose every other day for 14 days by H and E staining based assay; type: organism-based; conditions: in vivo, 336 h, time 14 day
[2] = Sub-acute toxicity in Kunming mouse assessed as clonic convulsion at 50 mg/kg, po administered once every second day for 14 days; type: organism-based; conditions: in vivo, 336 h, time 14 day
[3] = Sub-acute toxicity in Kunming mouse assessed as death at 50 mg/kg, po administered once every second day for 14 days; type: organism-based; conditions: in vivo, 336 h, time 14 day
[4] = biological target: T1, Solute carrier family 22 member 12 (Homo sapiens, UniProt Q96S37); experiment: Inhibition of human URAT1 expressed in HEK293T cells assessed as reduction in [14C]uric acid uptake preincubated for 15 mins followed by [14C]uric acid addition by liquid scintillation counting method; type: cell-based
T1 sequence (Q96S37 whole entry): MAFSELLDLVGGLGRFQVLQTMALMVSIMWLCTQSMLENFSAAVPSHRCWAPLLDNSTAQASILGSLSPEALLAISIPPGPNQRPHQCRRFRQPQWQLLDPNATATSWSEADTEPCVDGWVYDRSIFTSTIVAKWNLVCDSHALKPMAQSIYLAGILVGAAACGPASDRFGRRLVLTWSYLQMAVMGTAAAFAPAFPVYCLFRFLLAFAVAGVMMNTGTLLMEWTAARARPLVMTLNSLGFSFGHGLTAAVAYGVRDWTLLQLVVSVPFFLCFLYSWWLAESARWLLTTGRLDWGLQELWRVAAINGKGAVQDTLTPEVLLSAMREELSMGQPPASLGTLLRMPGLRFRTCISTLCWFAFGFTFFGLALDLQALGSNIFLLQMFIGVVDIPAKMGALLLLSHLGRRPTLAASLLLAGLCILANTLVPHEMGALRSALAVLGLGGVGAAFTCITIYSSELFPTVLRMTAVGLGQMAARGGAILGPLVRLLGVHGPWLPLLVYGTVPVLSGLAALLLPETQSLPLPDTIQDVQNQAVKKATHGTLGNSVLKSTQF

[5] = biological target: Cytochrome P450 2D6 (Homo sapiens, UniProt P10635); experiment: Inhibition of CYP2D6 in human liver microsome using probe substrate measured after 20 mins in presence of NADPH by LC-MS/MS analysis
Sequence of Cytochrome P450 2D6 (P10635 whole entry): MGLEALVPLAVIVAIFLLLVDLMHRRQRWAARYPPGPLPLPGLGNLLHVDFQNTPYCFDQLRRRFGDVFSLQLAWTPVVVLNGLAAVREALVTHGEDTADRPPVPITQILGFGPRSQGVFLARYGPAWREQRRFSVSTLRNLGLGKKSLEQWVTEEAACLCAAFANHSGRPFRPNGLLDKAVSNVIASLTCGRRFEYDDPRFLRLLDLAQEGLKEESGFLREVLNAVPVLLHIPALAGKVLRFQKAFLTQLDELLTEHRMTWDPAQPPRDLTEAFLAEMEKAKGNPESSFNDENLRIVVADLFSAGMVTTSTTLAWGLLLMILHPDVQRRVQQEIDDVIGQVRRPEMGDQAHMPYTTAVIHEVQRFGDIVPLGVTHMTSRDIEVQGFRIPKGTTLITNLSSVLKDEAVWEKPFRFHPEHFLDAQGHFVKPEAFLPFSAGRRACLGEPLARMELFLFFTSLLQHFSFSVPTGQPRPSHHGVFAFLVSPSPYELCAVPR

[6] = AUC (0 to infinity) in Sprague-Dawley rat at 1 mg/kg, iv by LC-MS analysis; type: ADME, organism-based; set-up: time infinity, route intravenous, dose 1 mg/kg; conditions: in vivo
[7] = AUC (0 to t) in Sprague-Dawley rat at 1 mg/kg, iv by LC-MS analysis; type: ADME, organism-based; set-up: dose 1 mg/kg; conditions: in vivo
[8] = biological target: Cytochrome P450 2C19 (Homo sapiens, UniProt P33261); experiment: Inhibition of CYP2C19 in human liver microsome using probe substrate measured after 20 mins in presence of NADPH by LC-MS/MS analysis
Sequence of Cytochrome P450 2C19 (P33261 whole entry): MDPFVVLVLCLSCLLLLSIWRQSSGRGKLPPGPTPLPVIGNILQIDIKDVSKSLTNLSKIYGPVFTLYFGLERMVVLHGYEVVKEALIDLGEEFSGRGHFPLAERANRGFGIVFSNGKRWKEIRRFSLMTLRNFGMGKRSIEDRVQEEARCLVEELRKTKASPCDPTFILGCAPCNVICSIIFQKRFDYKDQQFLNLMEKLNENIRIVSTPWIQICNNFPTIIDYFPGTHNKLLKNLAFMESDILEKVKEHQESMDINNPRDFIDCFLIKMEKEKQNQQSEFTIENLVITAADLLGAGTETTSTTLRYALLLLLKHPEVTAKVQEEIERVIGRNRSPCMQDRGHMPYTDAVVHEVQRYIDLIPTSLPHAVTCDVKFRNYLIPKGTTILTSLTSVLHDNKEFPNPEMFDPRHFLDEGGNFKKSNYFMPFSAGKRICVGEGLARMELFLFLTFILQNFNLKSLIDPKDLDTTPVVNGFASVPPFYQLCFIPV

[9] = Acute toxicity in Kunming mouse assessed as induction of abnormal behaviors by measuring lethargy at 500 mg/kg, ig; type: organism-based; conditions: in vivo, po
[10] = Sub-acute toxicity in Kunming mouse assessed as lethargy at 50 mg/kg, po administered once every second day for 14 days; type: organism-based; conditions: in vivo, 336 h, time 14 day
[11] = Sub-acute toxicity in female Kunming mouse assessed as increase in body weight at 50 mg/kg, po administered once every second day for 14 days; type: organism-based; conditions: in vivo, 336 h, time 14 day
[12] = Clearance in Sprague-Dawley rat at 1 mg/kg, iv by LC-MS analysis; type: ADME, organism-based; conditions: in vivo
[13] = MRT (0 to infinity) in Sprague-Dawley rat at 1 mg/kg, iv by LC-MS analysis; type: ADME, organism-based; conditions: in vivo
[14] = Sub-acute toxicity in Kunming mouse assessed as hydropic degeneration of hepatocytes at 50 mg/kg, po administered as single dose every other day for 14 days by H and E staining based assay; type: organism-based; conditions: in vivo, 336 h, time 14 day
[15] = biological target: Cytochrome P450 2C9 (Homo sapiens, UniProt P11712); experiment: Inhibition of CYP2C9 in human liver microsome using probe substrate measured after 20 mins in presence of NADPH by LC-MS/MS analysis
Sequence of Cytochrome P450 2C9 (P11712 whole entry): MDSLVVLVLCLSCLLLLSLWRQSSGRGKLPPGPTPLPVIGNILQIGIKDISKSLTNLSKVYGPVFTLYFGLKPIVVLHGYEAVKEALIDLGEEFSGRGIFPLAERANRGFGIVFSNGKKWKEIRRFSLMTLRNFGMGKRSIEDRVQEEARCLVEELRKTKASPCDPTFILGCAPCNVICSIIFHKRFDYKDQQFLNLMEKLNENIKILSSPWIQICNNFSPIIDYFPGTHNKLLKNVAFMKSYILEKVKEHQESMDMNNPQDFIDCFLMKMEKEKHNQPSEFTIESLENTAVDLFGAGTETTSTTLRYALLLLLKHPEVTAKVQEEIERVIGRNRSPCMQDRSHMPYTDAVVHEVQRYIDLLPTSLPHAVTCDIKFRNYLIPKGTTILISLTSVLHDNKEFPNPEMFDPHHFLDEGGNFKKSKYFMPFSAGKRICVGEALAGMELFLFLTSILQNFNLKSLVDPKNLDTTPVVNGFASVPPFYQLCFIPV

[16] = Sub-acute toxicity in Kunming mouse assessed as congestion in hepatic central vein at 50 mg/kg, po administered as single dose every other day for 14 days by H and E staining based assay; type: organism-based; conditions: in vivo, 336 h, time 14 day
[17] = Acute toxicity in female Kunming mouse assessed as change in body weight at 500 mg/kg, ig measured for 1 week; type: organism-based; conditions: in vivo, po, 168 h, time 1 weeks
[18] = Acute toxicity in Kunming mouse assessed as induction of abnormal behaviors by measuring clonic convulsion at 500 mg/kg, ig; type: organism-based; conditions: in vivo, po
[19] = Sub-acute toxicity in male Kunming mouse assessed as increase in body weight at 50 mg/kg, po administered once every second day for 14 days; type: organism-based; conditions: in vivo, 336 h, time 14 day
[20] = Sub-acute toxicity in Kunming mouse assessed as ballooning degeneration of liver at 50 mg/kg, po administered as single dose every other day for 14 days by H and E staining based assay; type: organism-based; conditions: in vivo, 336 h, time 14 day
[21] = Acute toxicity in male Kunming mouse assessed as change in body weight at 500 mg/kg, ig measured for 1 week; type: organism-based; conditions: in vivo, po, 168 h, time 1 weeks
[22] = biological target: Cytochrome P450 3A4 (Homo sapiens, UniProt P08684); experiment: Inhibition of CYP3A4 in human liver microsome using midazolam as substrate measured after 20 mins in presence of NADPH by LC-MS/MS analysis
Sequence of Cytochrome P450 3A4 (P08684 whole entry): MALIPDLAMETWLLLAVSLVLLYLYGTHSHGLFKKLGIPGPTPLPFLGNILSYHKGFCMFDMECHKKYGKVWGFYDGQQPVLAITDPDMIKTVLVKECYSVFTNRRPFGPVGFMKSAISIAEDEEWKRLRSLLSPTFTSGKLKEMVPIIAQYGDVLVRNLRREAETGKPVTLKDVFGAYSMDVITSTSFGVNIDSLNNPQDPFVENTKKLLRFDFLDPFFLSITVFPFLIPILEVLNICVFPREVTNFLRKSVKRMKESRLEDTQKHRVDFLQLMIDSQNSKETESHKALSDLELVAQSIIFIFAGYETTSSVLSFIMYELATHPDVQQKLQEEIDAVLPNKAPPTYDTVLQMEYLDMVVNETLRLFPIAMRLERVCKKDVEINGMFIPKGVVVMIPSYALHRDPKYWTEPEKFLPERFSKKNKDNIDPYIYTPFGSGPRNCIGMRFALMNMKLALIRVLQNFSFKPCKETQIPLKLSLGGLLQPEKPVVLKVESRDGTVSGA

[23] = Sub-acute toxicity in Kunming mouse assessed as appearance of ruffled fur at 50 mg/kg, po administered once every second day for 14 days; type: organism-based; conditions: in vivo, 336 h, time 14 day
[24] = Acute toxicity in Kunming mouse assessed as induction of abnormal behaviors by measuring anorexia at 500 mg/kg, ig; type: organism-based; conditions: in vivo, po
[25] = biological target: T2, Cytochrome P450 1A2 (Homo sapiens, UniProt P05177); experiment: Inhibition of CYP1A2 in human liver microsome using probe substrate measured after 20 mins in presence of NADPH by LC-MS/MS analysis
T2 sequence (P05177 whole entry): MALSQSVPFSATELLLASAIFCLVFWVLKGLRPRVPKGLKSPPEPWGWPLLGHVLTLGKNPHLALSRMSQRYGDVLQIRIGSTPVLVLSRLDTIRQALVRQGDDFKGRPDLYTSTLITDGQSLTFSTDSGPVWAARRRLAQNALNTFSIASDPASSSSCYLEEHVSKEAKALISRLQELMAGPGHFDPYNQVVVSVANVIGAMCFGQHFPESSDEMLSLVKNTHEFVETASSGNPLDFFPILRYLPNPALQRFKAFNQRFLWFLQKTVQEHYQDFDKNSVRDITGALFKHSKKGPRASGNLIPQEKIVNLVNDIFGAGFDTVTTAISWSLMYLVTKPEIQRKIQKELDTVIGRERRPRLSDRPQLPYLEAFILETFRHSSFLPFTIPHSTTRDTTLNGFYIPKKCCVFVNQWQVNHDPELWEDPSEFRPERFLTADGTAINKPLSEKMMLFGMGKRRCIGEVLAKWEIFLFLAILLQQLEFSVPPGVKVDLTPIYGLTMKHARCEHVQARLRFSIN

[26] = Sub-acute toxicity in Kunming mouse assessed as anorexia at 50 mg/kg, po administered once every second day for 14 days; type: organism-based; conditions: in vivo, 336 h, time 14 day
[27] = Acute toxicity in Kunming mouse assessed as death at 500 mg/kg, ig measured for 1 week; type: organism-based; conditions: in vivo, po, 168 h, time 1 weeks

| SMILES | Activity [1] | Activity [2] | Activity [3] | IC50 [4] | IC50 [5] | AUC(0-inf) [6] | AUC(0-t) [7] | IC50 [8] | Activity [9] | Activity [10] | Activity [11] | clearance [12] | MRT inf [13] | Activity [14] | IC50 [15] | Activity [16] | Activity [17] | Activity [18] | Activity [19] | Activity [20] | further results |
| --- | --- | --- | --- | --- | --- | --- | --- | --- | --- | --- | --- | --- | --- | --- | --- | --- | --- | --- | --- | --- | --- |
| O=C(CSc1nnc(Br)n1-c1ccc(C2CC2)c2ccccc12)NS(=O)(=O)c1ccc(Br)cc1 | Non-Toxic | Non-Toxic | Non-Toxic | 4170 nM | > 50 µM | 3090 ng·h/mL | 3030 ng·h/mL | 20.6 µM | Non-Toxic | Non-Toxic | Non-Toxic | 5.46 mL/min/kg | 4.3 h | Non-Toxic | 0.636 µM | Non-Toxic | Non-Toxic | Non-Toxic | Non-Toxic | Non-Toxic | Activity [21]: Non-Toxic; IC50 [22]: > 50 µM; Activity [23]: Non-Toxic; Activity [24]: Non-Toxic; IC50 [25]: > 50 µM; Activity [26]: Non-Toxic; Activity [27]: Non-Toxic |
| CC(Sc1nc2ncccc2n1-c1ccc(C2CC2)c2ccccc12)C(=O)O (racemic) | Non-Toxic | Non-Toxic | Non-Toxic | 1570 nM | > 50 µM | 3910 ng·h/mL | 3480 ng·h/mL | 48.7 µM | Non-Toxic | Non-Toxic | Non-Toxic | 4.4 mL/min/kg | 2.7 h | Non-Toxic | 20 µM | Non-Toxic | Non-Toxic | Non-Toxic | Non-Toxic | Non-Toxic | Activity [21]: Non-Toxic; IC50 [22]: > 50 µM; Activity [23]: Non-Toxic; Activity [24]: Non-Toxic; IC50 [25]: > 50 µM; Activity [26]: Non-Toxic; Activity [27]: Non-Toxic |
